{"source": "patent US10376520B2", "about": "“Methods for the treatment of cardiovascular disorders” (Galapagos NV, priority 2015, dated 2019)", "tested_on": "Subjects With Active Crohn's Disease", "experiment": "[HDL] determination, Study 5 (Crohn's disease)", "type": "in vivo, human", "description": "Double-Blind, Randomized, Placebo-Controlled, Multi-Centre Study to Investigate the Efficacy and Safety of Compound 1 in Subjects With Active Crohn's Disease With Evidence of Mucosal Ulceration.\nThis is a double-blind, randomized, placebo-controlled, multi-centre Phase 2 study to investigate the efficacy and safety of Compound 1 administered once daily for the treatment of active CD with evidence of mucosal ulceration. The pharmacokinetics (including a PK substudy) and pharmacodynamics of Compound 1 and metabolite in CD will also be characterised.\nA total of 180 eligible subjects will be randomized to receive Compound 1 or placebo in addition to their stable background treatment (eg, corticosteroids, aminosalicylates, or CD-related antibiotics). The study will consist of 2 parts, with total treatment duration of 20 weeks. Randomization in Part 1 will be stratified according the subject's previous anti-TNF exposure/response, CRP level at Screening, and oral corticosteroid use at visit Day −1.\nAfter the first 10 weeks of treatment in Part 1, patients will be re-randomized for Part 2 as shown in the diagram below and will be stratified according to the subject's clinical response, previous anti-TNF exposure/response, and oral corticosteroid use at visit Day −1.\nThe following assays were conducted at Eurofins Global Central Laboratory, Bergschot 71, 4817 PA Breda, The Netherlands, and at Quest Diagnostics, Clinical Trials, Quest House, 125-135 Staines Road, Hounslow, Middlesex, TW3 3JB, United Kingdom. The assays for Study 5 were performed at BARC Europe, 3B, Industrie Park, Zwijnaarde, B-9052 Ghent, Belgium.\nThis assay relies on a homogeneous enzymatic colorimetric test. In the presence of magnesium ions, dextran sulfate selectively forms water-soluble complexes with LDL, VLDL and chylomicrons which are resistant to PEG-modified enzymes.\nThe cholesterol concentration of [HDL]-cholesterol is determined enzymatically by cholesterol esterase and cholesterol oxidase coupled with PEG to the amino groups (approx. 40%).\nIn the presence of peroxidase, the hydrogen peroxide generated reacts with 4-amino-antipyrine and Sodium N-(2-hydroxy-3-sulfopropyl)-3,5-dimethoxyaniline (HSDA) to form a purple-blue dye. The color intensity of this dye is directly proportional to the cholesterol concentration and is measured photometrically.\nHuman serum and plasma samples [HDL] determination was done on a Roche/Hitachi Cobas c 701/702 system which automatically calculate the analyte concentration of each sample. Samples containing precipitates are centrifuged before performing the assay.", "key": {"[1]": {"settings": "200 mg q.d. continued to week 20; week 2"}, "[2]": {"settings": "200 mg q.d. continued to week 20; week 4"}, "[3]": {"settings": "200 mg q.d. continued to week 20; week 6"}, "[4]": {"settings": "200 mg q.d. continued to week 20; week 10"}, "[5]": {"settings": "200 mg q.d. continued to week 20; week 12"}, "[6]": {"settings": "200 mg q.d. continued to week 20; week 16"}, "[7]": {"settings": "200 mg q.d. continued to week 20; week 20"}, "[8]": {"settings": "200 mg q.d. week 0 to 10, then 100 mg q.d. (N = 30), week 2"}, "[9]": {"settings": "200 mg q.d. week 0 to 10, then 100 mg q.d. (N = 30), week 4"}, "[10]": {"settings": "200 mg q.d. week 0 to 10, then 100 mg q.d. (N = 30), week 6"}, "[11]": {"settings": "200 mg q.d. week 0 to 10, then 100 mg q.d. (N = 30), week 10"}, "[12]": {"settings": "200 mg q.d. week 0 to 10, then 100 mg q.d. (N = 30), week 12"}, "[13]": {"settings": "200 mg q.d. week 0 to 10, then 100 mg q.d. (N = 30), week 16"}, "[14]": {"settings": "200 mg q.d. week 0 to 10, then 100 mg q.d. (N = 30), week 20"}, "[15]": {"settings": "200 mg q.d. week 0 to 10, then placebo (N = 23), week 2"}, "[16]": {"settings": "200 mg q.d. week 0 to 10, then placebo (N = 23), week 4"}, "[17]": {"settings": "200 mg q.d. week 0 to 10, then placebo (N = 23), week 6"}, "[18]": {"settings": "200 mg q.d. week 0 to 10, then placebo (N = 23), week 10"}, "[19]": {"settings": "200 mg q.d. week 0 to 10, then placebo (N = 23), week 12"}, "[20]": {"settings": "200 mg q.d. week 0 to 10, then placebo (N = 23), week 16"}, "[21]": {"settings": "200 mg q.d. week 0 to 10, then placebo (N = 23), week 20"}, "[22]": {"settings": "200 mg q.d. week 0 to 10, to 100 mg q.d. week 10 to 20; week 2"}}, "data": [{"smiles": "O=C(Nc1nc2cccc(-c3ccc(CN4CCS(=O)(=O)CC4)cc3)n2n1)C1CC1", "note": "[Compound 1, cyclopropanecarboxylic acid {5-[4-(1,1-dioxo-thiomorpholin-4-ylmethyl)-phenyl]-[1,2,4]triazolo[1,5-a]pyridin-2yl}-amide]", "values": [{"measurement": "[HDL] Mean CFB - 10 weeks results", "setting": "200 mg q.d. (N = 130), week 2", "value": 0.222, "unit": "mmol/L"}, {"measurement": "[HDL] Median CFB - 10 weeks results", "setting": "200 mg q.d. (N = 130), week 2", "value": 0.210, "unit": "mmol/L"}, {"measurement": "[HDL] Mean CFB - 10 weeks results", "setting": "200 mg q.d. (N = 130), week 4", "value": 0.237, "unit": "mmol/L"}, {"measurement": "[HDL] Median CFB - 10 weeks results", "setting": "200 mg q.d. (N = 130), week 4", "value": 0.210, "unit": "mmol/L"}, {"measurement": "[HDL] Mean CFB - 10 weeks results", "setting": "200 mg q.d. (N = 130), week 6", "value": 0.243, "unit": "mmol/L"}, {"measurement": "[HDL] Median CFB - 10 weeks results", "setting": "200 mg q.d. (N = 130), week 6", "value": 0.250, "unit": "mmol/L"}, {"measurement": "[HDL] Mean CFB - 10 weeks results", "setting": "200 mg q.d. (N = 130), week 10", "value": 0.239, "unit": "mmol/L"}, {"measurement": "[HDL] Median CFB - 10 weeks results", "setting": "200 mg q.d. (N = 130), week 10", "value": 0.260, "unit": "mmol/L"}, {"measurement": "[HDL] Median CFB - 10 weeks results", "setting": "200 mg q.d. (N = 130); week 2", "value": 16.867, "unit": "%"}, {"measurement": "[HDL] Median CFB - 10 weeks results", "setting": "200 mg q.d. (N = 130); week 4", "value": 15.333, "unit": "%"}, {"measurement": "[HDL] Median CFB - 10 weeks results", "setting": "200 mg q.d. (N = 130); week 6", "value": 16.867, "unit": "%"}, {"measurement": "[HDL] Median CFB - 10 weeks results", "setting": "200 mg q.d. (N = 130); week 10", "value": 15.789, "unit": "%"}, {"measurement": "[HDL] Mean CFB - 20 weeks results", "setting": "[1]", "value": 18.29, "unit": "%"}, {"measurement": "[HDL] Median CFB - 10 weeks results", "setting": "[1]", "value": 17.33, "unit": "%"}, {"measurement": "[HDL] Mean CFB - 20 weeks results", "setting": "[2]", "value": 15.66, "unit": "%"}, {"measurement": "[HDL] Median CFB - 10 weeks results", "setting": "[2]", "value": 9.91, "unit": "%"}, {"measurement": "[HDL] Mean CFB - 20 weeks results", "setting": "[3]", "value": 19.93, "unit": "%"}, {"measurement": "[HDL] Median CFB - 10 weeks results", "setting": "[3]", "value": 13.98, "unit": "%"}, {"measurement": "[HDL] Mean CFB - 20 weeks results", "setting": "[4]", "value": 17.97, "unit": "%"}, {"measurement": "[HDL] Median CFB - 10 weeks results", "setting": "[4]", "value": 12.50, "unit": "%"}, {"measurement": "[HDL] Mean CFB - 20 weeks results", "setting": "[5]", "value": 16.97, "unit": "%"}, {"measurement": "[HDL] Median CFB - 10 weeks results", "setting": "[5]", "value": 9.94, "unit": "%"}, {"measurement": "[HDL] Mean CFB - 20 weeks results", "setting": "[6]", "value": 13.90, "unit": "%"}, {"measurement": "[HDL] Median CFB - 10 weeks results", "setting": "[6]", "value": 12.22, "unit": "%"}, {"measurement": "[HDL] Mean CFB - 20 weeks results", "setting": "[7]", "value": 11.15, "unit": "%"}, {"measurement": "[HDL] Median CFB - 10 weeks results", "setting": "[7]", "value": 10.66, "unit": "%"}, {"measurement": "[HDL] Mean CFB - 20 weeks results", "setting": "[8]", "value": 0.24, "unit": "mmol/L"}, {"measurement": "[HDL] Median CFB - 20 weeks results", "setting": "[8]", "value": 0.22, "unit": "mmol/L"}, {"measurement": "[HDL] Mean CFB - 20 weeks results", "setting": "[9]", "value": 0.31, "unit": "mmol/L"}, {"measurement": "[HDL] Median CFB - 20 weeks results", "setting": "[9]", "value": 0.22, "unit": "mmol/L"}, {"measurement": "[HDL] Mean CFB - 20 weeks results", "setting": "[10]", "value": 0.33, "unit": "mmol/L"}, {"measurement": "[HDL] Median CFB - 20 weeks results", "setting": "[10]", "value": 0.31, "unit": "mmol/L"}, {"measurement": "[HDL] Mean CFB - 20 weeks results", "setting": "[11]", "value": 0.33, "unit": "mmol/L"}, {"measurement": "[HDL] Median CFB - 20 weeks results", "setting": "[11]", "value": 0.26, "unit": "mmol/L"}, {"measurement": "[HDL] Mean CFB - 20 weeks results", "setting": "[12]", "value": 0.17, "unit": "mmol/L"}, {"measurement": "[HDL] Median CFB - 20 weeks results", "setting": "[12]", "value": 0.15, "unit": "mmol/L"}, {"measurement": "[HDL] Mean CFB - 20 weeks results", "setting": "[13]", "value": 0.11, "unit": "mmol/L"}, {"measurement": "[HDL] Median CFB - 20 weeks results", "setting": "[13]", "value": 0.03, "unit": "mmol/L"}, {"measurement": "[HDL] Mean CFB - 20 weeks results", "setting": "[14]", "value": 0.18, "unit": "mmol/L"}, {"measurement": "[HDL] Median CFB - 20 weeks results", "setting": "[14]", "value": 0.16, "unit": "mmol/L"}, {"measurement": "[HDL] Mean CFB - 20 weeks results", "setting": "[15]", "value": 0.18, "unit": "mmol/L"}, {"measurement": "[HDL] Median CFB - 20 weeks results", "setting": "[15]", "value": 0.18, "unit": "mmol/L"}, {"measurement": "[HDL] Mean CFB - 20 weeks results", "setting": "[16]", "value": 0.30, "unit": "mmol/L"}, {"measurement": "[HDL] Median CFB - 20 weeks results", "setting": "[16]", "value": 0.39, "unit": "mmol/L"}, {"measurement": "[HDL] Mean CFB - 20 weeks results", "setting": "[17]", "value": 0.15, "unit": "mmol/L"}, {"measurement": "[HDL] Median CFB - 20 weeks results", "setting": "[17]", "value": 0.16, "unit": "mmol/L"}, {"measurement": "[HDL] Mean CFB - 20 weeks results", "setting": "[18]", "value": 0.16, "unit": "mmol/L"}, {"measurement": "[HDL] Median CFB - 20 weeks results", "setting": "[18]", "value": 0.24, "unit": "mmol/L"}, {"measurement": "[HDL] Mean CFB - 20 weeks results", "setting": "[19]", "value": -0.12, "unit": "mmol/L"}, {"measurement": "[HDL] Median CFB - 20 weeks results", "setting": "[19]", "value": -0.03, "unit": "mmol/L"}, {"measurement": "[HDL] Mean CFB - 20 weeks results", "setting": "[20]", "value": -0.18, "unit": "mmol/L"}, {"measurement": "[HDL] Median CFB - 20 weeks results", "setting": "[20]", "value": -0.05, "unit": "mmol/L"}, {"measurement": "[HDL] Mean CFB - 20 weeks results", "setting": "[21]", "value": -0.21, "unit": "mmol/L"}, {"measurement": "[HDL] Median CFB - 20 weeks results", "setting": "[21]", "value": -0.08, "unit": "mmol/L"}, {"measurement": "[HDL] Mean CFB - 20 weeks results", "setting": "[22]", "value": 20.28, "unit": "%"}, {"measurement": "[HDL] Median CFB - 10 weeks results", "setting": "[22]", "value": 17.11, "unit": "%"}]}]}
